Test system: HBV (encapsidated HBV DNA, HepG2.2.15 cells)
Experiment: HBV replication inhibition assay, BDNA assay in HepG2.2.15 cells
Type: cell-based
Settings: Activity in BDNA-assay
How it was run: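 Encapsidated HBV DNA in DNase-treated, proteinase K-lysed supernatant was measured by branched DNA after 6 days' compound exposure, refreshed on day 3, of HepG2.2.15 cells in 0.5% DMSO. Signals normalized to DMSO-treated wells; EC50 from nonlinear regression of inhibition against log concentration.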

| SMILES | EC50 [nM] |
| --- | --- |
| CCC(O)C1CN(C)C(=O)c2c3c(nn2C1)CC(C)N(C(=O)Nc1ccc(F)c(C(F)(F)F)c1)C3 [Compound 107_D2, (3R,8R*)—N-(4-fluoro-3-(trifluoromethyl)phenyl)-8-((R)-1-hydroxypropyl)-3,10-dimethyl-11-oxo-1,3,4,7,8,9,10,11-octahydro-2H-pyrido[4′,3′:3,4]pyrazolo[1,5-a][1,4] diazepine-2-carboxamide] | 1 to 100 |
| CCC(O)C1CN(C)C(=O)c2c3c(nn2C1)CC(C)N(C(=O)Nc1ccc(F)c(C#N)c1)C3 [Compound 108_D1, (3R,8S*)—N-(3-cyano-4-fluorophenyl)-8-((R)-1-hydroxypropyl)-3,10-dimethyl-11-oxo-1,3,4,7,8,9,10,11-octahydro-2H-pyrido[4′,3′:3,4]pyrazolo[1,5-a][1,4]diazepine-2-carboxamide] | 1 to 100 |
| CCC(O)C1CN(C)C(=O)c2c3c(nn2C1)CC(C)N(C(=O)Nc1ccc(F)c(C#N)c1)C3 [Compound 108_D2, (3R,8R*)—N-(3-cyano-4-fluorophenyl)-8-((R)-1-hydroxypropyl)-3,10-dimethyl-11-oxo-1,3,4,7,8,9,10,11-octahydro-2H-pyrido[4′,3′:3,4]pyrazolo[1,5-a][1,4]diazepine-2-carboxamide] | 100 to 500 |
| CCC(O)C1CN(C)C(=O)c2c3c(nn2C1)CC(C)N(C(=O)Nc1ccc(F)c(Br)c1)C3 [Compound 109_D2, (3R,8R*)—N-(3-bromo-4-fluorophenyl)-8-((R)-1-hydroxypropyl)-3,10-dimethyl-11-oxo-1,3,4,7,8,9,10,11-octahydro-2H-pyrido[4′,3′:3,4]pyrazolo[1,5-a][1,4]diazepine-2-carboxamide] | 1 to 100 |
| CN1CC(C(O)CCF)Cn2nc3c(c2C1=O)CN(C(=O)Nc1ccc(F)c(Cl)c1)CC3 (stereo not shown) [Compound 115, N-(3-chloro-4-fluoro-phenyl)-8-(3-fluoro-1-hydroxy-propyl)-10-methyl-1-oxo-1,3,4,7,8,9-hexahydropyrido[2,3]pyrazolo[2,4-b][1,4]diazepine-2-carboxamide] | 1 to 100 |
| C=CC(O)C1CN(C)C(=O)c2c3c(nn2C1)CC(C)N(C(=O)Nc1ccc(F)c(C(F)(F)F)c1)C3 [Compound 122_D1, (3R,8S*)—N-(4-fluoro-3-(trifluoromethyl)phenyl)-8-((R*)-1-hydroxyallyl)-3,10-dimethyl-11-oxo-1,3,4,7,8,9,10,11-octahydro-2H-pyrido[4′,3′:3,4]pyrazolo[1,5-a][1,4]diazepine-2-carboxamide] | 1 to 100 |
| C=CC(O)C1CN(C)C(=O)c2c3c(nn2C1)CC(C)N(C(=O)Nc1ccc(F)c(C(F)(F)F)c1)C3 [Compound 122_D2, (3R,8S*)—N-(4-fluoro-3-(trifluoromethyl)phenyl)-8-((S*)-1-hydroxyallyl)-3,10-dimethyl-11-oxo-1,3,4,7,8,9,10,11-octahydro-2H-pyrido[4′,3′:3,4]pyrazolo[1,5-a][1,4]diazepine-2-carboxamide] | 100 to 500 |
| C=CC(O)C1CN(C)C(=O)c2c3c(nn2C1)CC(C)N(C(=O)Nc1ccc(F)c(Br)c1)C3 [Compound 124_D2, (3R,8S*)—N-(3-bromo-4-fluorophenyl)-8-((S*)-1-hydroxyallyl)-3,10-dimethyl-11-oxo-1,3,4,7,8,9,10,11-octahydro-2H-pyrido[4′,3′:3,4]pyrazolo[1,5-a][1,4]diazepine-2-carboxamide] | 1 to 100 |

Same assay, conditions: Hepatitis B virus, HepG2.2.15, Activity in BDNA-assay

| SMILES | EC50 [nM] |
| --- | --- |
| CCCC(O)C1CN(C)C(=O)c2c3c(nn2C1)CCN(C(=O)Nc1ccc(F)c(Cl)c1)C3 (stereo not shown) [Compound 106, N-(3-chloro-4-fluoro-phenyl)-8-(1-hydroxybutyl)-10-methyl-1-oxo-1,3,4,7,8,9-hexahydropyrido[2,3]pyrazolo[2,4-b][1,4]diazepine-2-carboxamide] | 1 to 100 |
| CCC(O)C1CN(C)C(=O)c2c3c(nn2C1)CC(C)N(C(=O)Nc1ccc(F)c(C(F)(F)F)c1)C3 [Compound 107_D1, (3R,8S*)—N-(4-fluoro-3-(trifluoromethyl)phenyl)-8-((R)-1-hydroxypropyl)-3,10-dimethyl-11-oxo-1,3,4,7,8,9,10,11-octahydro-2H-pyrido[4′,3′:3,4]pyrazolo[1,5-a][1,4] diazepine-2-carboxamide] | 1 to 100 |
| CCC(O)C1CN(C)C(=O)c2c3c(nn2C1)CC(C)N(C(=O)Nc1ccc(F)c(Br)c1)C3 [Compound 109_D1, (3R,8 S*)—N-(3-bromo-4-fluorophenyl)-8-((R)-1-hydroxypropyl)-3,10-dimethyl-11-oxo-1,3,4,7,8,9,10,11-octahydro-2H-pyrido[4′,3′:3,4]pyrazolo[1,5-a][1,4]diazepine-2-carboxamide] | 1 to 100 |
| CN1CCCCn2nc3c(c2C1=O)CN(C(=O)Nc1ccc(F)c(Cl)c1)CC3 [Compound 110, N-(3-chloro-4-fluorophenyl)-11-methyl-12-oxo-3,4,7,8,9,10,11,12-octahydropyrido[4′,3′:3,4]pyrazolo[1,5-a][1,4]diazocine-2 (1H)-carboxamide] | 1 to 100 |
| CN1C/C=C\Cn2nc3c(c2C1=O)CN(C(=O)Nc1ccc(F)c(Cl)c1)CC3 [Compound 111, (Z)—N-(3-chloro-4-fluorophenyl)-11-methyl-12-oxo-3,4,7,10,11,12-hexahydropyrido[4′,3′:3,4]pyrazolo[1,5-a][1,4]diazocine-2 (1H)-carboxamide] | 1 to 100 |
| CN1CCC(C(=O)O)n2nc3c(c2C1=O)CN(C(=O)Nc1ccc(F)c(Cl)c1)CC3 (stereo not shown) [Compound 113, 2-((3-chloro-4-fluorophenyl)carbamoyl)-10-methyl-11-oxo-1,3,4,7,8,9,10,11-octahydro-2H-pyrido[4′,3′:3,4]pyrazolo[1,5-a][1,4]diazepine-7-carboxylic acid] | > 1000 |
| CN1CCC(CO)n2nc3c(c2C1=O)CN(C(=O)Nc1ccc(F)c(Cl)c1)CC3 (stereo not shown) [Compound 114, N-(3-chloro-4-fluorophenyl)-7-(hydroxymethyl)-10-methyl-11-oxo-1,3,4,7,8,9,10,11-octahydro-2H-pyrido[4′,3′:3,4]pyrazolo[1,5-a][1,4]diazepine-2-carboxamide] | 1 to 100 |
| CN1CC(C(O)CC(F)F)Cn2nc3c(c2C1=O)CN(C(=O)Nc1ccc(F)c(Cl)c1)CC3 (stereo not shown) [Compound 116, N-(3-chloro-4-fluoro-phenyl)-8-(3,3-difluoro-1-hydroxy-propyl)-10-methyl-1-oxo-1,3,4,7,8,9-hexahydropyrido[2,3]pyrazolo[2,4-b][1,4]diazepine-2-carboxamide] | 1 to 100 |
| CC(=O)NCC1CN(C)C(=O)c2c3c(nn2C1)CCN(C(=O)Nc1ccc(F)c(Cl)c1)C3 (stereo not shown) [Compound 117, 8-(acetamidomethyl)-N-(3-chloro-4-fluorophenyl)-10-methyl-11-oxo-1,3,4,7,8,9,10,11-octahydro-2H-pyrido[4′,3′:3,4]pyrazolo[1,5-a][1,4]diazepine-2-carboxamide] | 1 to 100 |
| CN1CC(CNCC(F)F)Cn2nc3c(c2C1=O)CN(C(=O)Nc1ccc(F)c(C#N)c1)CC3 (stereo not shown) [Compound 118, N-(3-cyano-4-fluorophenyl)-8-(((2,2-difluoroethyl)amino)methyl)-10-methyl-11-oxo-1,3,4,7,8,9,10,11-octahydro-2H-pyrido[4′,3′:3,4]pyrazolo[1,5-a][1,4]diazepine-2-carboxamide] | 1 to 100 |
| CN1CC(CNCC(F)F)Cn2nc3c(c2C1=O)CN(C(=O)Nc1ccc(F)c(C(F)(F)F)c1)CC3 (stereo not shown) [Compound 119, 8-(((2,2-difluoroethyl)amino)methyl)-N-(4-fluoro-3-(trifluoromethyl)phenyl)-10-methyl-11-oxo-1,3,4,7,8,9,10,11-octahydro-2H-pyrido[4′,3′:3,4]pyrazolo[1,5-a][1,4] diazepine-2-carboxamide] | 1 to 100 |
| CN1CC(CNCC(F)(F)F)Cn2nc3c(c2C1=O)CN(C(=O)Nc1ccc(F)c(C#N)c1)CC3 (stereo not shown) [Compound 120, N-(3-cyano-4-fluorophenyl)-10-methyl-11-oxo-8-(((2,2,2-trifluoroethyl)amino)methyl)-1,3,4,7,8,9,10,11-octahydro-2H-pyrido[4′,3′:3,4]pyrazolo [1,5-a][1,4]diazepine-2-carboxamide] | 1 to 100 |
| CN1CC(CNCC(F)(F)F)Cn2nc3c(c2C1=O)CN(C(=O)Nc1ccc(F)c(C(F)(F)F)c1)CC3 (stereo not shown) [Compound 121, N-(4-fluoro-3-(trifluoromethyl)phenyl)-10-methyl-11-oxo-8-(((2,2,2-trifluoroethyl)amino)methyl)-1,3,4,7,8,9,10,11-octahydro-2H-pyrido[4′,3′:3,4]pyrazolo[1,5-a][1,4]diazepine-2-carboxamide] | 1 to 100 |
| C=CC(O)C1CN(C)C(=O)c2c3c(nn2C1)CC(C)N(C(=O)Nc1ccc(F)c(Br)c1)C3 [Compound 124_D1, (3R,8S*)—N-(3-bromo-4-fluorophenyl)-8-((R*)-1-hydroxyallyl)-3,10-dimethyl-11-oxo-1,3,4,7,8,9,10,11-octahydro-2H-pyrido[4′,3′:3,4]pyrazolo[1,5-a][1,4]diazepine-2-carboxamide] | 1 to 100 |
| CN1CC2(CC(O)C2)Cn2nc3c(c2C1=O)CN(C(=O)Nc1ccc(F)c(Cl)c1)CC3 (stereo not shown) [Compound 132, N-(3-chloro-4-fluorophenyl)-3-hydroxy-10′-methyl-11′-oxo-1′,3′,4′,9′,10′,11′-hexahydro-2′H,7′H-spiro[cyclobutane-1,8′-pyrido[4′,3′:3,4]pyrazolo [1,5-a][1,4]diazepine]-2′-carboxamide] | 1 to 100 |
| C[C@@H]1Cc2nn3c(c2CN1C(=O)Nc1ccc(F)c(C#N)c1)C(=O)N(C)C[C@@H](COCC(F)F)C3 [Compound 134_D1, (3R,8R)—N-(3-Cyano-4-fluorophenyl)-8-((2,2-difluoroethoxy)methyl)-3,10-dimethyl-11-oxo-1,3,4,7,8,9,10,11-octahydro-2H-pyrido[4′,3′:3,4]pyrazolo[1,5-a][1,4]diazepine-2-carboxamide] | 1 to 100 |
| C[C@@H]1Cc2nn3c(c2CN1C(=O)Nc1ccc(F)c(C(F)(F)F)c1)C(=O)N(C)C[C@@H](COCC(F)F)C3 [Compound 135_D1, (3R,8R)-8-((2,2-difluoroethoxy)methyl)-N-(4-fluoro-3-(trifluoromethyl)phenyl)-3,10-dimethyl-11-oxo-1,3,4,7,8,9,10,11-octahydro-2H-pyrido[4′,3′:3,4]pyrazolo[1,5-a][1,4]diazepine-2-carboxamide] | 1 to 100 |

From patent publication US10975077B2 (Novira Therapeutics, Inc., priority 2016, dated 2021)
